{"source": "patent US20190231757A1", "about": "“COMBINATION OF SPLEEN TYROSINE KINASE INHIBITORS AND OTHER THERAPEUTIC AGENTS” (Takeda Pharmaceutical Company Limited, priority 2016, published 2019)", "key": {"[1]": {"test_system": "A20 mouse syngeneic B-cell lymphoma", "assay": "Antitumor activity in Balb/c mice bearing A20 syngeneic B-cell lymphoma (Example 1)", "type": "in vivo"}, "OCI-LY10 xenografts": {"test_system": "OCI-LY10 xenografts", "assay": "Antitumor activity in CB17 SCID mice bearing OCI-LY10 xenografts, gemcitabine combination (Example 7)", "type": "in vivo, mouse", "conditions": "Day 21, alone or combined", "method": "Tumor growth inhibition was calculated on Day 21 of the study. The last measurement was taken on Day 42 of the study.\n(§1) Experimental design: Female CB17 SCID mice (Taconic Biosciences; weight at treatment start was 20 g) were inoculated subcutaneously in the flank (cell suspension) with 4.0×10^6 OCI-Ly10 cells. Tumor volume was calculated using the formula V=W^2×L/2, where V=volume, W=width and L=length of the tumor. When the mean tumor volume reached approximately 199 mm^3, the animals were randomized into 6 treatment groups (n=8/group). […] Tumor growth and body weight were measured twice per week. Tumor growth inhibition and body weight change were calculated on Day 21 of treatment.\n(§2) Statistical analysis: The differences in the tumor growth trends over time between pairs of treatment groups were assessed using linear mixed effects regression models. These models account for the fact that each animal was measured at multiple time points. A separate model was fit for each comparison, and the areas under the curve (AUC) for each treatment group were calculated using the predicted values from the model. The percent decrease in AUC (dAUC) relative to the reference group was then calculated. […] Further details regarding pairwise comparisons are provided in the Example 2.\n(§3) Drug combinations were assessed for synergy using observed AUC values. The change in AUC relative to the control was calculated for both single agent treatment groups as well as the combination group. The interaction between the two compounds was then assessed by comparing the change in AUC observed in the combination group to the sum of the changes observed in both single agents. The results can be divided into four categories: synergistic, additive, sub-additive, and antagonistic. Further details regarding combination analyses are provided in the Example 2.\n(§4) Once a final analysis was selected, the tumor measurements observed on a date pre-specified by the researcher (typically the last day of treatment) were analyzed to assess tumor growth inhibition. For this analysis, a T/C ratio was calculated for each animal by dividing the tumor measurement for the given animal by the mean tumor measurement across all control animals. The T/C ratios across a treatment group were compared to the T/C ratios of the control group using a two-tailed Welch's t-test."}, "TMD8 DLBCL xenografts": {"test_system": "TMD8 DLBCL xenografts", "assay": "Antitumor activity in CB17 SCID mice bearing TMD8 DLBCL xenografts, ABT-199 or gemcitabine combination (Example 9)", "type": "in vivo, mouse", "conditions": "Day 14, alone or combined with Compound A", "method": "Tumor growth inhibition was calculated on Day 14 of the study. The last measurement was taken on Day 29 of the study.\nas §1, with “about 19” for “20”, “5.0×10^6 TMD8” for “4.0×10^6 OCI-Ly10”, “cells. Tumor growth was monitored with vernier calipers.” for “cells.”, “245” for “199”, “14” for “21”\nas §2, §3, §4"}, "[2]": {"test_system": "Ly10 human lymphoma xenografts", "assay": "Antitumor activity in SCID mice bearing Ly10 xenografts, rituximab combination (Example 13)", "type": "in vivo, mouse", "conditions": "alone or combined"}, "[3]": {"test_system": "Ly19 human lymphoma xenografts", "assay": "Antitumor activity in SCID mice bearing Ly19 xenografts, rituximab combination (Example 14)", "type": "in vivo, mouse", "conditions": "alone or combined"}, "[4]": {"assay": "Body weight and tolerability, A20 study (Example 1)", "type": "in vivo, mouse", "conditions": "Compound A 60 mg/kg PO QD 21 d, anti-PD-1 10 mg/kg IP Q4D x3, alone or combined"}, "[5]": {"assay": "Body weight and tolerability, OCI-LY10 gemcitabine study (Example 7)", "type": "in vivo, mouse", "conditions": "alone or combined", "method": "as §1"}, "[6]": {"assay": "Body weight and tolerability, TMD8 ABT-199/gemcitabine study (Example 9)", "type": "in vivo, mouse", "conditions": "alone or combined with Compound A", "method": "as §1, with “about 19” for “20”, “5.0×10^6 TMD8” for “4.0×10^6 OCI-Ly10”, “cells. Tumor growth was monitored with vernier calipers.” for “cells.”, “245” for “199”, “14” for “21”"}, "[7]": {"assay": "Body weight and tolerability, OCI-LY10 ABT-199 study (Example 11)", "type": "in vivo, mouse", "conditions": "alone or combined", "method": "as §1, with “(Charles River Laboratories, about 21 g” for “(Taconic Biosciences; weight”, “start)” for “start was 20 g)”, “cells. Tumor growth was monitored with vernier calipers.” for “cells.”, “175” for “199”, “into” for “into 6”, “(n=5/group).” for “(n=8/group).”"}, "[8]": {"assay": "Body weight and tolerability, WSU-Luc ibrutinib study (Example 12)", "type": "in vivo, mouse", "conditions": "alone or combined", "method": "Tumor growth was monitored with vernier calipers. Tumor volume was calculated using the formula V=W^2×L/2, where V=volume, W=width and L=length of the tumor. When the mean tumor volume reached approximately 190 mm^3, the animals were randomized into treatment groups (n=8/group). […] Tumor growth and body weight were measured twice per week. Tumor growth inhibition and body weight change were calculated on Day 20 of treatment."}, "sensitive cell systems": {"test_system": "sensitive cell systems", "assay": "Activity in sensitive cell systems", "type": "cell-based"}, "[9]": {"conditions": "mouse, in vivo, po, 60 mg/kg"}, "[10]": {"conditions": "Compound A 60 mg/kg PO QD, anti-PD-1 10 mg/kg IP Q4D x3, alone or combined, Day 19"}, "[11]": {"conditions": "Compound A 60 mg/kg PO QD, gemcitabine 2.5 mg/kg IP Q3D"}, "[12]": {"conditions": "Compound A 60 mg/kg, gemcitabine 2.5 mg/kg"}, "[13]": {"conditions": "Compound A 60 mg/kg, ABT-199 25 mg/kg, gemcitabine 5 mg/kg"}, "[14]": {"conditions": "Day 21, Compound A 60 mg/kg PO QD x21, rituximab 1 mg/kg IV QW x3"}, "[15]": {"conditions": "Day 14, Compound A 60 mg/kg PO QD x14, rituximab 10 mg/kg IV QW x2"}}, "note": "Several values for one entry are separate records, joined by “and”; a condition that tells them apart may be missing. Equal entries are not always repeated. Structures can show the parent of a compound that is named as a salt.", "data": [{"smiles": "Cn1cc(-c2nc(N[C@@H]3CCCC[C@@H]3N)c(F)c3c2C(=O)NC3)cn1", "note": "[Compound A, 6-((1R,2S)-2-aminocyclohexylamino)-7-fluoro-4-(1-methyl-1H-pyrazol-4-yl)-1H-pyrrolo[3,4-c]pyridine-3 (2H)-one citrate]", "values": [{"measurement": "Mean Tumor Volume (mm^3) ± SEM", "setting": "[1]; Compound A 60 mg/kg PO QD 21 d, anti-PD-1 10 mg/kg IP Q4D x3, alone or combined, Day 19", "result": "1,582.9 ± 317.2 mm^3"}, {"measurement": "T/C", "setting": "[1]; [10]", "result": 0.85}, {"measurement": "TGI (%)", "setting": "[1]; [10]", "result": 15.3, "unit": "%"}, {"measurement": "dAUC (percent decrease in AUC, pairwise comparison)", "setting": "[1]; reference 0.5% methylcellulose, Compound A 60 mg/kg, anti-PD-1 10 mg/kg, days >19 excluded", "result": 10.2}, {"measurement": "Mean Tumor Volume (mm^3) ± SEM", "setting": "OCI-LY10 xenografts; [11]", "result": "409.4 ± 55.2", "unit": "mm^3"}, {"measurement": "TGI (%)", "setting": "OCI-LY10 xenografts; [11]", "result": 65.5, "unit": "%"}, {"measurement": "T/C", "setting": "OCI-LY10 xenografts; [12]", "result": 0.35}, {"measurement": "TGI (%)", "setting": "TMD8 DLBCL xenografts; Compound A 60 mg/kg PO QD, ABT-199 25 mg/kg PO QD, gemcitabine 5 mg/kg IP Q3D x4", "result": 25.7, "unit": "%"}, {"measurement": "Mean Tumor Volume (mm^3) ± SEM", "setting": "TMD8 DLBCL xenografts; [13]", "result": "1,100.2 ± 134.5 mm^3"}, {"measurement": "T/C", "setting": "TMD8 DLBCL xenografts; [13]", "result": 0.74}, {"measurement": "Mean Tumor Volume (mm^3) ± SEM at Day 21", "setting": "[2]; [14]", "result": "217.6 ± 25.6", "unit": "mm^3"}, {"measurement": "TGI (%)", "setting": "[2]; [14]", "result": 76.0, "unit": "%"}, {"measurement": "dAUC", "setting": "[2]; vs vehicle, Compound A 60 mg/kg, rituximab 1 mg/kg", "result": 122.4}, {"measurement": "Mean Tumor Volume (mm^3) ± SEM at Day 14", "setting": "[3]; [15]", "result": "1594.0 ± 115.6", "unit": "mm^3"}, {"measurement": "TGI (%)", "setting": "[3]; [15]", "result": 36.6, "unit": "%"}, {"measurement": "dAUC", "setting": "[3]; vs vehicle, Compound A 60 mg/kg, rituximab 10 mg/kg", "result": 11.5}, {"measurement": "Number of animals removed", "setting": "[4]", "result": 1}, {"measurement": "% BW Change (Day Maximum)", "setting": "[4]; maximum change within treatment period, citrate", "result": "15.8% and 15.8 (19) %"}, {"measurement": "% BW Change (Day Maximum)", "setting": "[5]; Compound A 60 mg/kg PO QD 21 d, gemcitabine 2.5 mg/kg IP Q3D (4 doses)", "result": "6.8 (21) %"}, {"measurement": "Number of animals removed", "setting": "[5]; [12]", "result": 0}, {"measurement": "% BW Change (Day Maximum)", "setting": "[6]; Compound A 60 mg/kg PO QD 14 d, ABT-199 25 mg/kg PO QD 14 d, gemcitabine 5 mg/kg IP Q3D x4", "result": "7.9 (14) %"}, {"measurement": "Number of animals removed", "setting": "[6]; [13]", "result": 0}, {"measurement": "% BW Change (Day Maximum)", "setting": "[7]; Compound A 60 mg/kg PO QD 21 d, ABT-199 12.5 mg/kg PO QD 21 d", "result": "−0.0 (3) %"}, {"measurement": "Number of animals removed", "setting": "[7]; Compound A 60 mg/kg, ABT-199 12.5 mg/kg", "result": 0}, {"measurement": "% BW Change (Day Maximum)", "setting": "[8]; Compound A 60 mg/kg PO QD 21 d, ibrutinib 20 mg/kg PO QD 21 d", "result": "11.6 (20) %"}, {"measurement": "Number of animals removed", "setting": "[8]; Compound A 60 mg/kg, ibrutinib 20 mg/kg", "result": 0}, {"measurement": "EC50", "setting": "sensitive cell systems", "result": "0.025 to 0.4", "unit": "µM"}, {"measurement": "Maximum mean % BWL", "setting": "[9]", "result": 0, "unit": "%"}]}]}
